Laboratory results reported in US9315458B2, “Nitrogen-containing heterocyclic compound” (Takeda Pharmaceutical Company Limited, priority 2014, dated 2016).

Biological target: T1, human M1 receptor (hCHRM1) (Homo sapiens, UniProt P11229)
T1 construct: expressed in transfected cells
T1 sequence (P11229 1-460): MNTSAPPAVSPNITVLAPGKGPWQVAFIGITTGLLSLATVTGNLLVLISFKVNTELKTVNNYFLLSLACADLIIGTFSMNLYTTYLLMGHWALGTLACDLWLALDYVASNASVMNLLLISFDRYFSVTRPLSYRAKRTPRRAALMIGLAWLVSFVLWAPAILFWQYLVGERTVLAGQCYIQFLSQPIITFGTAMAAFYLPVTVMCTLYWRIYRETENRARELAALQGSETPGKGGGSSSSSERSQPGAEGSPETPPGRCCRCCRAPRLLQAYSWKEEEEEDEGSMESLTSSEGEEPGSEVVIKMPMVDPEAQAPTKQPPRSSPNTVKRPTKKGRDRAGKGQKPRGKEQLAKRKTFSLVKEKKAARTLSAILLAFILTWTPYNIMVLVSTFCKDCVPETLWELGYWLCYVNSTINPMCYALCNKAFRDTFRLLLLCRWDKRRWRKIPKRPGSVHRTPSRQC
Test: Measurement of M1 receptor positive allosteric modulator (M1PAM) activity, calcium fluorescence (FLIPRtetra) with acetylcholine at EC20
Assay type: cell-based
Conditions: for activity (%) at 10 μM: 10 μM test compound, 100% = acetylcholine 1 μM, 0% = DMSO, acetylcholine at EC20; for EC50: inflection point of concentration-dependent curve, CHO-K1 cells expressing hCHRM1, acetylcholine at EC20 (final 0.6-0.8 nM), read-out: IP value
Procedure: The activity of a test compound in the presence of acetylcholine at EC20 concentration (final concentration 0.6-0.8 nM), which affords an action corresponding to about 20% of the maximum activity, was measured as PAM activity. The method is as follows. CHO-K1 cells stably expressing a human M1 receptor (hCHRM1) were plated on a 384-well black clear bottom plate (BD Falcon) at 5,000 cells/well, and cultured in an incubator at 37° C., 5% CO2 for 1 day. The medium in the cell plate was removed, and assay buffer A (Recording medium (DOJINDO LABORATORIES), 0.1% BSA (Wako Pure Chemical Industries, Ltd.), 2.5 μg/mL Fluo-4 AM (DOJINDO LABORATORIES), 0.08% Pluronic F127 (DOJINDO LABORATORIES), 1.25 mM probenecid (DOJINDO LABORATORIES)) containing a calcium indicator was added at 30 μL/well. The cells were left standing in the incubator at 37° C., 5% CO2 for 30 min, and further left standing at room temperature for 30 min. A test compound prepared by diluting with assay buffer B (HBSS (Invitrogen), 20 mM HEPES (Invitrogen), 0.1% BSA) containing 2.4-3.2 nM acetylcholine was added at 10 μL/well, and the fluorescence was measured by FLIPRtetra (Molecular Devices) for 1 min every 1 second. With the definition that the amount of change in the fluorescence on addition of acetylcholine (final concentration 1 μM) is 100% and that on addition of DMSO instead of a test compound is 0%, the activity (%) of the test compound was calculated, and the inflection point in the concentration-dependent curve of the test compound was calculated as IP values.

| Structure (SMILES) | activity (%) at 10 μM | EC50 |
| --- | --- | --- |
| CCc1cc2c(cc1Cc1ccc(-n3cccn3)cc1)C(=O)N([C@H]1CCC[C@@H]1O)C2 (racemic) [Example 59, rac-5-ethyl-2-(trans-2-hydroxycyclopentyl)-6-(4-(1H-pyrazol-1-yl)benzyl)isoindolin-1-one] | 100% | 34 nM |
| CCc1cc2c(cc1Cc1ccc(-c3ccn(C)n3)cc1)C(=O)N([C@H]1CCC[C@@H]1O)C2 (racemic) [Example 63, rac-5-ethyl-2-(trans-2-hydroxycyclopentyl)-6-(4-(1-methyl-1H-pyrazol-3-yl)benzyl)isoindolin-1-one] | 99% | 45 nM |
| Cn1cc(-c2ccc(Cc3cc4c(cc3C3CC3)CN([C@H]3CCC[C@@H]3O)C4=O)cc2)nn1 (racemic) [Example 64, rac-5-cyclopropyl-2-(trans-2-hydroxycyclopentyl)-6-(4-(1-methyl-1H-1,2,3-triazol-4-yl)benzyl)isoindolin-1-one] | 104% | 22 nM |
| Cc1cc2c(cc1Cc1ccc(-c3cnn(C)c3)cc1)C(=O)N([C@H]1CCC[C@@H]1O)C2 (racemic) [Example 67, rac-2-(trans-2-hydroxycyclopentyl)-5-methyl-6-(4-(1-methyl-1H-pyrazol-4-yl)benzyl)isoindolin-1-one] | 93% | 26 nM |
| Cc1c(Cc2ccc(-c3cnn(C)c3)cc2)cc2c(c1C)CN([C@H]1CCC[C@@H]1O)C2=O (racemic) [Example 69, rac-2-(trans-2-hydroxycyclopentyl)-4,5-dimethyl-6-(4-(1-methyl-1H-pyrazol-4-yl)benzyl)isoindolin-1-one] | 95% | 13 nM |
| Cc1c(Cc2ccc(-c3ccn(C)n3)cc2F)cc2c(c1C)CN([C@H]1CCC[C@@H]1O)C2=O (racemic) [Example 71, rac-6-(2-fluoro-4-(1-methyl-1H-pyrazol-3-yl)benzyl)-2-(trans-2-hydroxycyclopentyl)-4,5-dimethylisoindolin-1-one] | 100% | 56 nM |
| Cn1cc(-c2ccc(Cc3cc4c(cc3Cl)CN([C@H]3CCCC[C@@H]3O)C4=O)cc2)cn1 (racemic) [Example 75, rac-5-chloro-2-(trans-2-hydroxycyclohexyl)-6-(4-(1-methyl-1H-pyrazol-4-yl)benzyl)isoindolin-1-one] | 97% | 23 nM |
| Cc1c(Cc2ccc(-n3cccn3)cc2)cc2c(c1F)CN([C@H]1CCCC[C@@H]1O)C2=O (racemic) [Example 78, rac-4-fluoro-2-(trans-2-hydroxycyclohexyl)-5-methyl-6-(4-(1H-pyrazol-1-yl)benzyl)isoindolin-1-one] | 95% | 8.8 nM |
| Cc1c(Cc2ccc(-n3cccn3)cc2)cc2c(c1F)CN([C@H]1CCC[C@@H]1O)C2=O (racemic) [Example 79, rac-4-fluoro-2-(trans-2-hydroxycyclopentyl)-5-methyl-6-(4-(1H-pyrazol-1-yl)benzyl)isoindolin-1-one] | 93% | 72 nM |
| Cc1c(Cc2ccc(-c3ccn(C)n3)cc2)cc2c(c1C)CN([C@H]1CCCC[C@@H]1O)C2=O (racemic) [Example 82, rac-2-(trans-2-hydroxycyclohexyl)-4,5-dimethyl-6-(4-(1-methyl-1H-pyrazol-3-yl)benzyl)isoindolin-1-one] | 91% | 5.7 nM |
| Cc1c(Cc2ccc(-c3ccn(C)n3)cc2)cc2c(c1C)CN([C@H]1CCC[C@@H]1O)C2=O (racemic) [Example 83, rac-2-(trans-2-hydroxycyclopentyl)-4,5-dimethyl-6-(4-(1-methyl-1H-pyrazol-3-yl)benzyl)isoindolin-1-one] | 92% | 13 nM |
| O=C1c2cc(Cc3ccc(-n4cccn4)cc3)c(C(F)(F)F)c(Cl)c2CN1[C@H]1CCC[C@@H]1O (racemic) [Example 88, rac-4-chloro-2-(trans-2-hydroxycyclopentyl)-6-(4-(1H-pyrazol-1-yl)benzyl)-5-(trifluoromethyl)isoindolin-1-one] | 98% | 85 nM |
